Source: patent publication US12012390B2, “Flavone compounds for the treatment and prophylaxis of hepatitis B virus disease” (priority 2018, dated 2024)
pIC50: −log10 of the molar value. Like-named read-outs stand apart in the source and are kept apart here.

Tested on: HBeAg level (surrogate marker for cccDNA) in HepDES19 cells
Test: Engineered HepDES19 primary screen assay (HBeAg as surrogate marker for cccDNA)
Format: cell-based, HBV
Excerpt: The assay was employed to screen for novel cccDNA inhibitors. HepDES19 is a cccDNA-producing cell line. In this cell line, HBeAg in the cell culture supernatant as surrogate marker, as HBeAg production depends on cccDNA level and activity. HepDES19 is an engineered cell line which contains a 1.1 unit length HBV genome, and pgRNA transcription from the transgene is controlled by Tetracycline (Tet). In the absence of Tet, pgRNA transcription will be induced, but HBV e antigen (HBeAg) could not be produced from this pgRNA due to very short leader sequence before the HBeAg start codon and the start codon is disrupted. Only after cccDNA is formed, the missing leader sequence and start codon mutation would be restored from the 3′-terminal redundancy of pgRNA, and then HBeAg could be synthesized. Therefore, HBeAg could be used as a surrogate marker for cccDNA (Zhou, T. et al., Antiviral Res. (2006), 72(2), 116-124; Guo, H. et al., J. Virol. (2007), 81(22), 12472-12484).
HepDES19 cells were seeded at 2×10^6 cells per T150 flask and cultured with the culture medium (Dulbecco's Modified Eagle Medium: Nutrient Mixture F-12 [DMEM-F12, Gibco Cat. 11320-82], 10% Fetal Bovine Serum [FBS, Clontech Cat. 631101], 0.1 mM Non-Essential Amino Acids Solution [NEAA, Gibco Cat. 11140-050], 50 μg/mL Penicillin-Streptomycin [PS, Invitrogen Cat. 15140-163], 500 μg/mL Geneticin [G418, Invitrogen Cat. 10131-027]) containing 3 μg/mL Tet (Sigma, Cat. 87128) for 5 days. Cells were then seeded at 4×10^6 cells per T150 in the same culture medium as described above in the absence of Tet for 8 days. Cells were then harvested and frozen at density of 2×10^6 cells per mL. For compound testing, the frozen cells were thawed and seeded into 96-well plates at a density of 6×10^4 cells per well. At 24 hrs after seeding, half log serial dilutions of compounds made with Dimethyl sulfoxide (DMSO, Sigma, Cat. D2650) were further diluted with the same culture medium as described above before they were added to the cells to reach desired final compound concentrations and 1% DMSO concentration. Plates were then incubated at 37° C. for another 5 days before measurement of HBeAg level and cell viability. Intracellular HBeAg level were measured with enzyme-linked immunosorbent assay (ELISA) kit (Shanghai Kehua Diagnostic Medical Products Co., Ltd). Cell viability was assessed using Cell Counting Kit-8 (Donjindo, Cat. CK04-20). IC50 values were derived from the dose-response curve using 4 parameter logistic curve fit method.
The compounds of the present invention were tested for their capacity to inhibit extracellular HBeAg level as described herein.

[1] = Hepatitis B virus, HepDES19, 120 h, read-out: IC50 (HBeAg) in HepDES19 primary screen assay, HepDES19 cells, 5 days incubation with compound, HBeAg by ELISA
[2] = read-out: IC50 (HBeAg) in HepDES19 primary screen assay, HepDES19 cells, 5 days incubation with compound, HBeAg by ELISA

Compound | pIC50 [1] | pIC50 [2]
COC(=O)[C@H]1C[C@@H](OCCOc2ccc(-c3cc(=O)c4cccc(Cl)c4o3)nn2)C1 [Example 41, Cis-methyl 3-[2-[6-(8-chloro-4-oxo-chromen-2-yl)pyridazin-3-yl]oxyethoxy]cyclobutanecarboxylate] | 4.89 | 
O=C(O)COCCOc1ccc(-c2oc3c(Cl)cccc3c(=O)c2O)cc1 [Example 59, 2-[2-[4-(8-chloro-3-hydroxy-4-oxo-chromen-2-yl)phenoxy]ethoxy]acetic acid] | 4.69 | 
NC(=O)COCCOc1ccc(-c2cc(=O)c3cccc(Cl)c3o2)cc1 [Example 61, 2-[2-[4-(8-chloro-4-oxo-chromen-2-yl)phenoxy]ethoxy]acetamide] | 6.84 | 
O=C(O)C1CC(OCCOc2ccc(-c3cc(=O)c4ccc(C5CC5)c(Cl)c4o3)cc2)C1 (single isomer, unassigned) [Example 70-A, 3-[2-[4-(8-chloro-7-cyclopropyl-4-oxo-chromen-2-yl)phenoxy]ethoxy]cyclobutanecarboxylic acid] |  | 4.70
COC(=O)C1CC(OCCOc2ccc(-c3oc4c(Cl)cc(F)cc4c(=O)c3OC(F)(F)F)cc2)C1 (single isomer, unassigned) [Example 62-B, methyl 3-[2-[4-[8-chloro-6-fluoro-4-oxo-3-(trifluoromethoxy)chromen-2-yl]phenoxy]ethoxy]cyclobutanecarboxylate] |  | 5.88
O=c1cc(-c2ccc(OCCO[C@H]3C[C@@H](C(=O)O)C3)cc2)oc2c(C3CC3)cccc12 [Example 34, Cis-3-[2-[4-(8-cyclopropyl-4-oxo-chromen-2-yl)phenoxy]ethoxy]cyclobutanecarboxylic acid] | 4.80 | 
O=C(O)COCCOc1ccc(-c2cc(=O)c3cccc(Cl)c3o2)cc1 [Example 9, 2-[2-[4-(8-chloro-4-oxo-chromen-2-yl)phenoxy]ethoxy]acetic acid] | 5.61 | 
O=C(O)C1CC(OCCOc2ccc(-c3cc(=O)c4ccc(C5CC5)c(Cl)c4o3)cc2)C1 (stereo not drawn) [Example 70, 3-[2-[4-(8-chloro-7-cyclopropyl-4-oxo-chromen-2-yl)phenoxy]ethoxy]cyclobutanecarboxylic acid] | 4.76 | 
CC(C)c1cc(-c2cc(=O)c3cccc(Cl)c3o2)ccc1OCCOC1CC(C(=O)O)C1 (stereo not drawn) [Example 48, 3-[2-[4-(8-chloro-4-oxo-chromen-2-yl)-2-isopropyl-phenoxy]ethoxy]cyclobutanecarboxylic acid] | 5.11 | 
O=C(O)C1CC(OCCOc2ccc(-c3cc(=O)c4cc(N5CCCC5=O)cc(Cl)c4o3)cc2)C1 (stereo not drawn) [Example 68, 3-[2-[4-[8-chloro-4-oxo-6-(2-oxopyrrolidin-1-yl)chromen-2-yl]phenoxy]ethoxy]cyclobutanecarboxylic acid] | 5.00 | 
O=C(O)[C@H]1C[C@H]1OCCOc1ccc(-c2cc(=O)c3cccc(Cl)c3o2)cc1 (single isomer, unassigned) [Example 5-A, 2-[2-[4-(8-chloro-4-oxo-chromen-2-yl)phenoxy]ethoxy]cyclopropanecarboxylic acid] |  | 5.87
CCOC(=O)COCCOc1ccc(-c2cc(=O)c3ccc(Br)c(Cl)c3o2)cc1 [Example 71, ethyl 2-[2-[4-(7-bromo-8-chloro-4-oxo-chromen-2-yl)phenoxy]ethoxy]acetate] | 5.03 | 
O=C(O)C1CC(OCCOc2ccc(-c3oc4c(Cl)cccc4c(=O)c3OCc3ccccc3)cc2)C1 (stereo not drawn) [Example 65, 3-[2-[4-(3-benzyloxy-8-chloro-4-oxo-chromen-2-yl)phenoxy]ethoxy]cyclobutanecarboxylic acid] | 5.19 | 
O=C(O)C1CC(OCCOc2ccc(-c3oc4c(Cl)cccc4c(=O)c3Br)cc2)C1 (stereo not drawn) [Example 64, 3-[2-[4-(3-bromo-8-chloro-4-oxo-chromen-2-yl)phenoxy]ethoxy]cyclobutanecarboxylic acid] | 5.26 | 
COc1c(-c2ccc(OCCO[C@H]3C[C@@H](C(=O)O)C3)cc2)oc2c(Cl)cccc2c1=O [Example 56, Cis-3-[2-[4-(8-chloro-3-methoxy-4-oxo-chromen-2-yl)phenoxy]ethoxy]cyclobutanecarboxylic acid] | 4.53 | 
O=c1cc(-c2ccc(OCCO[C@H]3CC[C@@H](C(=O)O)CC3)cc2)oc2c(Cl)cccc12 (single isomer, unassigned) [Example 7-B, 4-[2-[4-(8-chloro-4-oxo-chromen-2-yl)phenoxy]ethoxy]cyclohexanecarboxylic acid] |  | 4.71
CC(C)Oc1ccc(Cl)c2oc(-c3ccc(OCCO[C@H]4C[C@@H](C(=O)O)C4)cc3)cc(=O)c12 [Example 27, Cis-3-[2-[4-(8-chloro-5-isopropoxy-4-oxo-chromen-2-yl)phenoxy]ethoxy]cyclobutanecarboxylic acid] | 5.11 | 
O=C(O)COCCOc1ccc(-c2cc(=O)c3c(F)ccc(Cl)c3o2)cc1 [Example 37, 2-[2-[4-(8-chloro-5-fluoro-4-oxo-chromen-2-yl)phenoxy]ethoxy]acetic acid] | 5.05 | 
O=c1cc(-c2ccc(OCCO[C@H]3CC[C@@H](C(=O)O)CC3)cc2)oc2c(Cl)cccc12 (single isomer, unassigned) [Example 7-A, 4-[2-[4-(8-chloro-4-oxo-chromen-2-yl)phenoxy]ethoxy]cyclohexanecarboxylic acid] | 4.81 | 
Cc1cccc2c(=O)cc(-c3ccc(OCCO[C@H]4C[C@@H](C(=O)O)C4)cc3)oc12 [Example 35, Cis-3-[2-[4-(8-methyl-4-oxo-chromen-2-yl)phenoxy]ethoxy]cyclobutanecarboxylic acid] | 4.86 | 
O=C(O)C1CC(OCCOc2ccc(-c3cc(=O)c4cccc(Cl)c4o3)c(N3CCOCC3)c2)C1 (stereo not drawn) [Example 60, 3-[2-[4-(8-chloro-4-oxo-chromen-2-yl)-3-morpholino-phenoxy]ethoxy]cyclobutanecarboxylic acid] | 5.32 | 
N#Cc1cc(Cl)c2oc(-c3ccc(OCCOC4CC(C(=O)O)C4)cc3)cc(=O)c2c1 (stereo not drawn) [Example 22, 3-[2-[4-(8-chloro-6-cyano-4-oxo-chromen-2-yl)phenoxy]ethoxy]cyclobutanecarboxylic acid] | 4.88 | 
Cc1ccc(Cl)c2oc(-c3ccc(OCCO[C@H]4C[C@@H](C(=O)O)C4)cc3)cc(=O)c12 [Example 31, Cis-3-[2-[4-(8-chloro-5-methyl-4-oxo-chromen-2-yl)phenoxy]ethoxy]cyclobutanecarboxylic acid] | 6.11 | 
O=C(O)C1CC(OCCOc2ccc(-c3cc(=O)c4cc(F)cc(Cl)c4o3)cc2)C1 (stereo not drawn) [Example 20, 3-[2-[4-(8-chloro-6-fluoro-4-oxo-chromen-2-yl)phenoxy]ethoxy]cyclobutanecarboxylic acid] | 6.15 | 
